Results reported in patent US7541353B2, “Compounds for the treatment of hepatitis C” (Bristol-Myers Squibb Company, priority 2007, dated 2009).

Columns and labels:
HCV NS5B = biological target: T1, HCV NS5B (Hepatitis C virus genotype 1b, UniProt Q9WMX2); assay: Modified HCV NS5B RdRp enzyme assay (preincubation protocol); type: biochemical
T1 construct: The cDNA encoding the NS5B protein of HCV, genotype 1b; made in house; host or cells: E. coli BL21(DE3)
Procedure: HCV NS5B RdRp cloning, expression, and purification. The cDNA encoding the NS5B protein of HCV, genotype 1b, was cloned into the pET21a expression vector. The protein was expressed with an 18 amino acid C-terminal truncation to enhance the solubility. The E. coli competent cell line BL21(DE3) was used for expression of the protein. Cultures were grown at 37° C. for ˜4 hours until the cultures reached an optical density of 2.0 at 600 nm. The cultures were cooled to 20° C. and induced with 1 mM IPTG. Fresh ampicillin was added to a final concentration of 50 μg/ml and the cells were grown overnight at 20° C.
Cell pellets (3L) were lysed for purification to yield 15-24 mgs of purified NS5B. The lysis buffer consisted of 20 mM Tris-HCl, pH 7.4, 500 mM NaCl, 0.5% triton X-100, 1 mM DTT, 1 mM EDTA, 20% glycerol, 0.5 mg/ml lysozyme, 10 mM MgCl2, 15 ug/ml deoxyribonuclease I, and Complete™ protease inhibitor tablets (Roche). After addition of the lysis buffer, frozen cell pellets were resuspended using a tissue homogenizer. To reduce the viscosity of the sample, aliquots of the lysate were sonicated on ice using a microtip attached to a Branson sonicator. The sonicated lysate was centrifuged at 100,000×g for 1 hr at 4° C. and filtered through a 0.2 μm filter unit (Corning).
The protein was purified using two sequential chromatography steps: Heparin sepharose CL-6B and polyU sepharose 4B (Pharmacia). The chromatography buffers were identical to the lysis buffer but contained no lysozyme, deoxyribonuclease I, MgCl2 or protease inhibitor and the NaCl concentration of the buffer was adjusted according to the requirements for charging the protein onto the column. Each column was eluted with a NaCl gradient which varied in length from 5-50 column volumes depending on the column type. After the final chromatography step, the resulting purity of the enzyme is >90% based on SDS-PAGE analysis. The enzyme was aliquoted and stored at −80° C.
Standard HCV NS5B RdRp enzyme assay. HCV RdRp genotype 1b assays were run in a final volume of 60 μl in 96 well plates (Corning 3600). The assay buffer is composed of 20 mM Hepes, pH 7.5, 2.5 mM KCl, 2.5 mM MgCl2, 1 mM DTT, 1.6 U RNAse inhibitor (Promega N2515), 0.01 mg/ml BSA (Sigma B6917), and 2% glycerol. All compounds were serially diluted (3-fold) in DMSO and diluted further in water such that the final concentration of DMSO in the assay was 2%. HCV RdRp genotype 1b enzyme was used at a final concentration of 28 nM. A polyA template was used at 6 nM, and a biotinylated oligo-dT12 primer was used at 180 nM final concentration. Template was obtained commercially (Amersham 27-4110). Biotinylated primer was prepared by Sigma Genosys. 3H-UTP was used at 0.6 μCi (0.29 μM total UTP). Reactions were initiated by the addition of enzyme, incubated at 30° C. for 60 min, and stopped by adding 25 μl of 50 mM EDTA containing SPA beads (4 μg/μl, Amersham RPNQ 0007). Plates were read on a Packard Top Count NXT after >1 hr incubation at room temperature.
Modified HCV NS5B RdRp enzyme assay. A modified enzyme assay was performed essentially as described for the standard enzyme assay except for the following: The biotinylated oligo dT12 primer was precaptured on streptavidin-coated SPA beads by mixing primer and beads in assay buffer and incubating at room temperature for one hour. Unbound primer was removed after centrifugation. The primer-bound beads were resuspended in 20 mM Hepes buffer, pH 7.5 and used in the assay at final concentrations of 20 nM primer and 0.67 μg/μl beads. Order of addition in the assay: enzyme (1.75 nM) was added to diluted compound followed by the addition of a mixture of template (0.36 nM), 3H-UTP (0.6 μCi, 0.29 μM), and primer-bound beads, to initiate the reaction; concentrations given are final. Reactions were allowed to proceed for 4 hours at 30° C.
IC50 values for compounds were determined using seven different [I]. […]

HCV replicon cells = assay: HCV replicon FRET assay; type: cell-based; details: Hepatitis C virus
Procedure: FRET Assay Preparation. The HCV FRET screening assay was performed in 96-well cell culture plates. The FRET peptide (Anaspec, Inc.) (Taliani et al., Anal. Biochem. 1996, 240, 60-67) contains a fluorescence donor, EDANS, near one end of the peptide and an acceptor, DABCYL, near the other end. The fluorescence of the peptide is quenched by […] resonance energy transfer (RET) between the donor and the acceptor, but as the NS3 protease cleaves the peptide the products are released from RET quenching and the fluorescence of the donor becomes apparent. The assay reagent was made as follows: 5× cell Luciferase cell culture lysis reagent from Promega (#E153A) diluted to 1× with dH2O, NaCl added to 150 mM final, the FRET peptide diluted to 20 μM final from a 2 mM stock.
To prepare plates, HCV replicon cells, with or without a Renilla luciferase reporter gene, were trypsinized and plated in a 96-well plate with titrated test compounds added in columns 3 through 12; columns 1 and 2 contained a control compound (HCV control inhibitor), and the bottom row contained cells with DMSO only. The plates were then placed in a CO2 incubator at 37° C.
Assays. Subsequent to addition of the test compounds described above (FRET Assay Preparation), at various times the plate was removed and Alamar blue solution (Trek Diagnostics, #00-100) was added to measure cellular toxicity. After reading in a Cytoflour 4000 instrument (PE Biosystems), plates were rinsed with PBS and then used for FRET assay by the addition of 30 ul of the FRET peptide assay reagent described above (FRET Assay Preparation) per well. The plate was then placed into the Cytoflour 4000 instrument which had been set to 340 excite/490 emission, automatic mode for up to 20 cycles and the plate read in a kinetic mode. Typically, the signal to noise using an endpoint analysis after the reads was at least three-fold. Alternatively, after Alamar blue reading, plates were rinsed with PBS, then used for luciferase assay using the Promega Dual-Glo Luciferase Assay System or the Promega EnduRen Live Cell Substrate assay.
Compound analysis was performed by quantification of the relative HCV replicon inhibition and the relative cytotoxicity values. To calculate cytoxicity values, the average Alamar Blue fluorescence signals from the control wells were set as 100% non-toxic. The individual signals in each of the compound test wells were then divided by the average control signal and multiplied by 100% to determine […]. To calculate the HCV replicon inhibition values, an average background value was obtained from the two wells containing the highest amount of HCV control inhibitor at the end of the assay period. These numbers were similar to those obtained from naïve Huh-7 cells. The background numbers were then subtracted from the average signal obtained from the control wells and this number was used as 100% activity. The individual signals in each of the compound test wells were then divided by the averaged control values after background subtraction and multiplied by 100% to determine percent activity. EC50 values were calculated as the concentration which caused a 50% reduction in FRET or luciferase activity. The two numbers generated for the compound plate, percent cytoxicity and percent activity, were used to determine compounds of interest for further analysis.

T1 sequence (Q9WMX2 2420-2992): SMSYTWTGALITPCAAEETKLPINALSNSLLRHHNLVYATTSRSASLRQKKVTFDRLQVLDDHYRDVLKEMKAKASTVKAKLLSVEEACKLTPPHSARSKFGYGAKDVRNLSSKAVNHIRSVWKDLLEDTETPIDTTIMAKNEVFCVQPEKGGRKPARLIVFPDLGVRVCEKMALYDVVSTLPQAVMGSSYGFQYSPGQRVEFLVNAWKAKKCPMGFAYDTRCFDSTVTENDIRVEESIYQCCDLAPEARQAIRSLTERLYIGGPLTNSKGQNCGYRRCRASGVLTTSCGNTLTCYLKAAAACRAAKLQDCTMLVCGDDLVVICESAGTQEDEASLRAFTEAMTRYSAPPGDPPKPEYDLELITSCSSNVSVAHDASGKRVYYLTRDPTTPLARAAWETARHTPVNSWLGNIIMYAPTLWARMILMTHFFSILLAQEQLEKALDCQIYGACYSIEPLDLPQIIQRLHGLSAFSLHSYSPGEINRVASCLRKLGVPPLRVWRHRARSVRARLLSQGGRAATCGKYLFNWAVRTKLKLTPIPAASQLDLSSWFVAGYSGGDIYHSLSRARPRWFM

Compound: COc1ccc2c(c1)C1CC1(C(=O)N1C3CCC1CC(O)C3)Cn1c-2c(C2CCCCC2)c2ccc(C(=O)NS(=O)(=O)N(C)C)cc21 (stereo not drawn)
- IC50 (HCV NS5B): 4.58 to 500 nM
- EC50 (HCV replicon cells): 4.58 to 500 nM

Compound: COc1ccc2c(c1)[C@@H]1C[C@]1(C(=O)N1C3CCC(O)C1CCC3O)Cn1c-2c(C2CCCCC2)c2ccc(C(=O)NS(=O)(=O)N(C)C)cc21 (stereo partly drawn)
- IC50 (HCV NS5B): 4.58 to 500 nM
- EC50 (HCV replicon cells): 4.58 to 500 nM

Compound: COc1ccc2c(c1)C1CC1(C(=O)N1C3CCC1CC(N1CCCCC1)C3)Cn1c-2c(C2CCCCC2)c2ccc(C(=O)NS(=O)(=O)N(C)C)cc21 (stereo not drawn)
- IC50 (HCV NS5B): 4.58 to 500 nM
- EC50 (HCV replicon cells): 4.58 to 500 nM
